Source: publication PMC7774954, “Interactomic affinity profiling by holdup assay: Acetylation and distal residues impact the PDZome-binding specificity of PTEN phosphatase” (PLoS ONE, 2020)
pKd: −log10 of the molar value. *1 amine or outer side, *2 acyl side, *3 side chain or, on linkers, in order; H or OH if unused. Where a SMILES comes first, the peptide text is derived from it. The star is where a group is joined. X1 = O=C(CCCC[C@@H]1SC[C@@H]2NC(=O)N[C@@H]21)NCCCOCCOCCOCCCN*; Suc = O=C(CCC(=O)[*:2])[*:1]

Legend:
[1] = biological target: T1, NHERF2 PDZ 1 (Homo sapiens, UniProt Q15599); assay: Holdup assay, NHERF2-1; type: binding; settings: PDZ domain NHERF2-1
T1 construct: made in house; host or cells: E. coli
Description: The holdup assay was performed on a Tecan freedom Evo200 robot with 384-well plates in singlicate for the three 11-mer PTEN variants and the 13-mer PTEN peptide as described in [31, 32]. Briefly, prior to interaction assay, 2.5 μL of streptavidin resin was saturated in each well with 20 μL of biotinylated PBM peptides (42 μM) and then washed twice with an excess of free biotin, while the reference resin was incubated only with biotin. Right before the holdup experiment, the PDZ library was spiked with an internal standard of lysozyme. Then, the biotin- or PBM-saturated resin was incubated, each in a distinct well of a 384-well plate, with complete cell lysates diluted so that the concentration of the tag-PDZ present in the crude extract is adjusted at 4 μM. After a sufficient time to reach complex equilibrium (15 min.), a fast and mild filtration step is performed and the tag-PDZ concentrations were measured by capillary electrophoresis instrument (LabChip GXII, PerkinElmer, Massachusets, USA). Standard markers were used to convert migration time into molecular weight on the LabChip software and inappropriate molecular weight markers were corrected or excluded.
For filtered data, the BI was extracted with the following equation (Eq 1) that estimates the depleted fraction after superimposition of the sample and reference electropherograms: BI=Iref−Ilig/Iref (1) where Iref and Ilig are the intensities of the tag-PDZ peaks measured, for each PDZ domain/PBM peptide interaction pair, in the biotin reference and the PBM electropherograms, respectively.
BIs were transformed into dissociation constants (KD) using the following formula: KD=([PDZtot]−BI·[PDZtot])·([PBMtot]−BI·[PDZtot])/BI·[PDZtot] (2) where [PDZtot] and [PBMtot] correspond to the total concentrations of the PDZ domain (usually around 4 μM) and the PBM peptide used during the assay. Since the PBMtot concentration in the resin during the holdup assay parameter may differ from one peptide to another and remains unknown, it is impossible to directly convert BI values into KD constants. We systematically determined the KD constants for a subset of PDZ/PBM pairs by competitive FP. […] For each PBM, the average peptide concentration was calculated after outlier rejection based on the absolute distances from the median as compared to three times the standard deviation (3σ rule), with never more than 2 values rejected.

[2] = system: AHNAK2-1; assay: Holdup assay, AHNAK2-1; type: binding, human
[3] = system: APBA2-2; assay: Holdup assay, APBA2-2; type: binding, human
[4] = system: CARD14-1; assay: Holdup assay, CARD14-1; type: binding, human
[5] = biological target: T2, FRMPD2-2 (Homo sapiens, UniProt Q68DX3); assay: Holdup assay, FRMPD2-2; type: binding
T2 sequence (Q68DX3 1-1309): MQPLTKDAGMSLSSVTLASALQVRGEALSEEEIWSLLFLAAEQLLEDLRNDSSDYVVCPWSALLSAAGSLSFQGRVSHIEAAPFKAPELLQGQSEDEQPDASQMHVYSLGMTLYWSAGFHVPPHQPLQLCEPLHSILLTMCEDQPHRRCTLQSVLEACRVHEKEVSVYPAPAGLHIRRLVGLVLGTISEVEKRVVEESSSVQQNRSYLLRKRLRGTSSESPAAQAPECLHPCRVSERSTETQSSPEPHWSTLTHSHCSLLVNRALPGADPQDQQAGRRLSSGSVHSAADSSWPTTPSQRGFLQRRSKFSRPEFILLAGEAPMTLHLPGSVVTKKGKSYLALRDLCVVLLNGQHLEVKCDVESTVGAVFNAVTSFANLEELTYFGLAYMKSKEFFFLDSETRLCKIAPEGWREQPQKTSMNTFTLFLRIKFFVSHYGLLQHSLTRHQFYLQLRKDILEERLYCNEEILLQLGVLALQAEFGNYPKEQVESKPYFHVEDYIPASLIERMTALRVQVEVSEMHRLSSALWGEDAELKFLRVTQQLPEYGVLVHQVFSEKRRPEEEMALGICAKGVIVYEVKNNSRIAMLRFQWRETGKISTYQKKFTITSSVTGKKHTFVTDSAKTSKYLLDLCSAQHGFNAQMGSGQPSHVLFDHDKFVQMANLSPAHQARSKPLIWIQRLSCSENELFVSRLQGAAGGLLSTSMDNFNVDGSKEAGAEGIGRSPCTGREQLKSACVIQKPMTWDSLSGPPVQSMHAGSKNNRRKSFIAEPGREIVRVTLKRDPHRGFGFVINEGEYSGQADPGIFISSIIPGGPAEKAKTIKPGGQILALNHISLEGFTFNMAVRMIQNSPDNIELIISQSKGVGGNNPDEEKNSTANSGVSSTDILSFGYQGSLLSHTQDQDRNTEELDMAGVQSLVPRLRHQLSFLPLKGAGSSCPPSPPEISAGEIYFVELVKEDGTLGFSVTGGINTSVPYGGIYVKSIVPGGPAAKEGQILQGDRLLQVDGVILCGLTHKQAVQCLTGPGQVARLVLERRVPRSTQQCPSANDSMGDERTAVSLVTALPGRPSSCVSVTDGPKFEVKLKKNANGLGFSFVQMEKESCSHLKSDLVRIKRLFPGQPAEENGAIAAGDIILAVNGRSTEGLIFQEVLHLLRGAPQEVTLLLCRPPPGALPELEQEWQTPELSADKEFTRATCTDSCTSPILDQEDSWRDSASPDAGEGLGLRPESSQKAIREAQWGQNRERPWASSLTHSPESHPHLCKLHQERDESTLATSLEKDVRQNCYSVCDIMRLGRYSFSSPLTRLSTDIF

[6] = system: GRIP1-6; assay: Holdup assay, GRIP1-6; type: binding, human
[7] = system: GRIP2-5; assay: Holdup assay, GRIP2-5; type: binding, human
[8] = system: HTRA3-1; assay: Holdup assay, HTRA3-1; type: binding, human
[9] = system: INADL-10; assay: Holdup assay, INADL-10; type: binding, human
[10] = biological target: LAP2-1 (Homo sapiens, UniProt Q96RT1); assay: Holdup assay, LAP2-1; type: binding
[11] = system: MAGI1-6; assay: Holdup assay, MAGI1-6; type: binding, human
[12] = system: MAGI2-1; assay: Holdup assay, MAGI2-1; type: binding, human
[13] = system: MAGI3-3; assay: Holdup assay, MAGI3-3; type: binding, human

T1 sequence (Q15599 11-90 limits assumed): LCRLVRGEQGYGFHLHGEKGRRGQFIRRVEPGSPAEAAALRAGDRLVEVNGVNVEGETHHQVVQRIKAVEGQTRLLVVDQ
Chain of LAP2-1 (Q96RT1 1321-1410): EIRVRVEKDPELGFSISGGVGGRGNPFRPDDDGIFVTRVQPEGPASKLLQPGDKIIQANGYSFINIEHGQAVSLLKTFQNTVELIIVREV

SMILES | BI [1] | BI [2] | LogKD [2] | BI [3] | LogKD [3] | BI [4] | BI [5] | pKd [5] | BI [6] | LogKD [6] | BI [7] | LogKD [7] | BI [8] | LogKD [8] | BI [9] | BI [10] | pKd [10] | BI [11] | BI [12] | BI [13] | further results
CC[C@H](C)[C@H](NC(=O)[C@H](CCC(N)=O)NC(=O)[C@@H](NC(=O)[C@H](Cc1c[nH]cn1)NC(=O)[C@H](CCC(N)=O)NC(=O)[C@H](CC(=O)O)NC(=O)[C@H](CCC(=O)O)NC(=O)[C@H](CC(=O)O)NC(=O)CCC(=O)NCCCOCCOCCOCCCNC(=O)CCCC[C@@H]1SC[C@@H]2NC(=O)N[C@@H]21)[C@@H](C)O)C(=O)N[C@H](C(=O)N[C@@H](CCCCN)C(=O)N[C@H](C(=O)O)C(C)C)[C@@H](C)O [PTEN_11] | 0.099 | -0.026 | 3.519 | -0.01 | 3.519 | -0.077 | 0.291 | 4.10 | 0.065 | 3.519 | 0.055 | 3.519 | 0.05 | 3.519 | 0.022 | 0.305 | 4.13 | -0.04 | -0.04 | -0.099 | LogKD [4]: 3.519; LogKD [9]: 3.519; LogKD [11]: 3.519; LogKD [12]: 3.519; LogKD [13]: 3.519
CC[C@H](C)[C@H](NC(=O)[C@H](CCC(N)=O)NC(=O)[C@@H](NC(=O)[C@H](Cc1c[nH]cn1)NC(=O)[C@H](CCC(N)=O)NC(=O)[C@H](CC(=O)O)NC(=O)[C@H](CCC(=O)O)NC(=O)[C@H](CC(=O)O)NC(=O)CCC(=O)NCCCOCCOCCOCCCNC(=O)CCCC[C@@H]1SC[C@@H]2NC(=O)N[C@@H]21)[C@@H](C)O)C(=O)N[C@H](C(=O)N[C@@H](CCCCNC(C)=O)C(=O)N[C@H](C(=O)O)C(C)C)[C@@H](C)O [PTEN_Ac] | 0.078 | 0.034 | 3.605 | -0.03 | 3.605 | – | 0.574 | 4.72 | -0.056 | 3.605 | 0.067 | 3.605 | 0.011 | 3.605 | – | 0.214 | 4.00 | 0.096 | 0.014 | -0.079 | LogKD [11]: 3.605; LogKD [12]: 3.605; LogKD [13]: 3.605
CC[C@H](C)[C@H](NC(=O)[C@H](CCC(N)=O)NC(=O)[C@@H](NC(=O)[C@H](Cc1c[nH]cn1)NC(=O)[C@H](CCC(N)=O)NC(=O)[C@H](CC(=O)O)NC(=O)[C@H](CCC(=O)O)NC(=O)[C@H](CC(=O)O)NC(=O)[C@H](Cc1ccccc1)NC(=O)[C@@H]1CCCN1C(=O)CCC(=O)NCCCOCCOCCOCCCNC(=O)CCCC[C@@H]1SC[C@@H]2NC(=O)N[C@@H]21)[C@@H](C)O)C(=O)N[C@H](C(=O)N[C@@H](CCCCN)C(=O)N[C@H](C(=O)O)C(C)C)[C@@H](C)O [PTEN_13] ({X1-Suc}-PFDEDQHTQITKV-OH) | 0.11 | – | – | 0.041 | – | -0.001 | 0.254 | 4.33 | 0.004 | – | -0.06 | – | -0.059 | – | -0.05 | 0.172 | – | 0.072 | -0.114 | -0.03 | –
CC[C@H](C)[C@H](NC(=O)[C@H](CCC(N)=O)NC(=O)[C@@H](NC(=O)[C@H](Cc1c[nH]cn1)NC(=O)[C@H](CCC(N)=O)NC(=O)[C@H](CC(=O)O)NC(=O)[C@H](CCC(=O)O)NC(=O)[C@H](CC(=O)O)NC(=O)CCC(=O)NCCCOCCOCCOCCCNC(=O)CCCC[C@@H]1SC[C@@H]2NC(=O)N[C@@H]21)[C@@H](C)O)C(=O)N[C@H](C(=O)N[C@@H](CCCNC(=N)N)C(=O)N[C@H](C(=O)O)C(C)C)[C@@H](C)O [PTEN_KR] ({X1-Suc}-DEDQHTQITRV-OH) | 0.169 | -0.009 | 3.655 | -0.002 | 3.655 | -0.077 | 0.295 | 4.24 | 0.038 | 3.655 | 0.006 | 3.655 | 0.065 | 3.655 | 0.019 | 0.205 | 4.03 | 0.051 | -0.074 | -0.043 | LogKD [4]: 3.655; LogKD [9]: 3.655; LogKD [11]: 3.655; LogKD [12]: 3.655; LogKD [13]: 3.655
